The values below come from patent US20240002391A1, “4-ALKOXYPYRROLO[2,1-F][1,2,4]TRIAZINES AND PREPARATION AND USES THEREOF” (BioSplice Therapeutics, Inc., priority 2022, published 2024).

In the assay the target is recombinant DYRK1A kinase (Homo sapiens (Human), UniProt Q13627). As to the kind of experiment: DYRK1A kinase assay (Ser/Thr 18 peptide Z-lyte FRET). The class given is biochemical. The settings on record: DYRK1A kinase activity, Z-lyte Ser/Thr 18 peptide, 15 μM ATP; method text calls the value IC50; read-out: EC50 (the source's name). The method in brief: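 Steps: combine 0.25 μg/mL kinase, 15 μM ATP and 4 μM peptide with test compound; incubate 1 h at room temperature; add diluted development reagent for another hour; read coumarin and fluorescein emission at Ex 400. The emission ratio yields percent phosphorylation, from which IC50 is derived.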
In the case of `COc1nc(N[C@H]2C[C@](C)(NC(=O)C3(C#N)CC3)C2)nn2ccc(-c3ccc4ncnn4c3)c12` [Compound 563, N-((1r,3r)-3-((5-([1,2,4]Triazolo[1,5-a]pyridin-6-yl)-4-methoxypyrrolo[2,1-f][1,2,4]triazin-2-yl)amino)-1-methylcyclobutyl)-1-cyanocyclopropane-1-carboxamide], the IC50 was 1 nM. The result for `COc1nc(N[C@H]2C[C@@](C)(C(=O)NC3CC3)C2)nn2ccc(-c3ccc4nnn(C)c4c3)c12` [Compound 217, cis-N-Cyclopropyl-3-((4-methoxy-5-(1-methyl-1H-benzo[d][1,2,3]triazol-6-yl)pyrrolo[2,1-f][1,2,4]triazin-2-yl)amino)-1-methylcyclobutane-1-carboxamide] reads 9.3 nM.

Turning to `COc1nc(NC2CCC(F)(F)CC2)nn2ccc(-c3cnc4nccn4c3)c12` [Compound 254, N-(4,4-Difluorocyclohexyl)-5-(imidazo[1,2-a]pyrimidin-6-yl)-4-methoxypyrrolo[2,1-f][1,2,4]triazin-2-amine], the IC50 was 1.8 nM.

On to `COc1nc(N[C@H]2CC[C@](C)(O)CC2)nn2ccc(-c3ccc4nnn(CC(F)F)c4c3)c12` [Compound 725, (1r,4r)-4-((5-(1-(2,2-difluoroethyl)-1H-benzo[d][1,2,3]triazol-6-yl)-4-methoxypyrrolo[2,1-f][1,2,4]triazin-2-yl)amino)-1-methylcyclohexan-1-ol], for which the IC50 was determined as 0.6 nM. The result for `COc1nc(N[C@@H]2CCCOC2)nn2ccc(-c3cnc4nccn4c3)c12` [Compound 975, (R)-5-(Imidazo[1,2-a]pyrimidin-6-yl)-4-methoxy-N-(tetrahydro-2H-pyran-3-yl)pyrrolo[2,1-f][1,2,4]triazin-2-amine] reads 7.6 nM. Then `COc1nc(N[C@@H]2CCN(C(C)=O)CC2(F)F)nn2ccc(-c3ccc4ncn(CC(F)F)c4c3)c12` [Compound 1140, (R)-1-(4-((5-(1-(2,2-Difluoroethyl)-1H-benzo[d]imidazol-6-yl)-4-methoxypyrrolo[2,1-f][1,2,4]triazin-2-yl)amino)-3,3-difluoropiperidin-1-yl)ethan-1-one], with 1.3 nM; and `COc1nc(NC2CCC3(CC2)CN(C(C)=O)C3)nn2ccc(-c3ccn4nccc4c3)c12` [Compound 40, 1-(7-((4-Methoxy-5-(pyrazolo[1,5-a]pyridin-5-yl)pyrrolo[2,1-f][1,2,4]triazin-2-yl)amino)-2-azaspiro[3.5]nonan-2-yl)ethan-1-one], with 1.6 nM. Then `COc1nc(N[C@H]2CCN(C(C)=O)C[C@H]2F)nn2ccc(-c3ccc4ncccc4c3)c12` [Compound 1047, 1-((3R,4S)-3-Fluoro-4-((4-methoxy-5-(quinolin-6-yl)pyrrolo[2,1-f][1,2,4]triazin-2-yl)amino)piperidin-1-yl)ethan-1-one], with 2.1 nM; and `COc1nc(N[C@@H]2CCN(C(C)=O)C[C@@H]2F)nn2ccc(-c3ccc4nnn(CC(F)F)c4c3)c12` [Compound 770, 1-((3S,4R)-4-((5-(1-(2,2-Difluoroethyl)-1H-benzo[d][1,2,3]triazol-6-yl)-4-methoxypyrrolo[2,1-f][1,2,4]triazin-2-yl)amino)-3-fluoropiperidin-1-yl)ethan-1-one], with 1.5 nM; and `COc1nc(N[C@@H]2CCNC[C@@H]2F)nn2ccc(-c3ccn4nccc4c3)c12` [Compound 29], with 9.2 nM. Regarding `COc1nc(N[C@H]2CC[C@@](O)(C(F)(F)F)CC2)nn2ccc(-c3ccc4nccnc4c3)c12` [Compound 349, trans-4-((4-Methoxy-5-(quinoxalin-6-yl)pyrrolo[2,1-f][1,2,4]triazin-2-yl)amino)-1-(trifluoromethyl)cyclohexan-1-ol], the IC50 was 6.6 nM. Then `COc1nc(N[C@H]2CC[C@H](C(C)(C)O)CC2)nn2ccc(-c3cnc4nccn4c3)c12` [Compound 242, 2-(trans-4-((5-(Imidazo[1,2-a]pyrimidin-6-yl)-4-methoxypyrrolo[2,1-f][1,2,4]triazin-2-yl)amino)cyclohexyl)propan-2-ol], with 4.4 nM; and `CCC(=O)N[C@]1(C)C[C@@H](Nc2nc(OC)c3c(-c4ccc5nnn(C)c5c4)ccn3n2)C1` [Compound 207, N-(trans-3-((4-Methoxy-5-(1-methyl-1H-benzo[d][1,2,3]triazol-6-yl)pyrrolo[2,1-f][1,2,4]triazin-2-yl)amino)-1-methylcyclobutyl)propionamide], with 1.3 nM; and `COc1nc(N[C@H]2CCN(C)C[C@H]2F)nn2cc(F)c(-c3ccc4nnn(C)c4c3)c12` [Compound 630, 6-Fluoro-N-((3R,4S)-3-fluoro-1-methylpiperidin-4-yl)-4-methoxy-5-(1-methyl-1H-benzo[d][1,2,3]triazol-6-yl)pyrrolo[2,1-f][1,2,4]triazin-2-amine], with 4.9 nM. For the molecule `COc1nc(N[C@H]2CC[C@](C)(O)CC2)nn2ccc(-c3ccc4nc(C)nn4c3)c12` [Compound 622, (1r,4r)-4-((4-Methoxy-5-(2-methyl-[1,2,4]triazolo[1,5-a]pyridin-6-yl)pyrrolo[2,1-f][1,2,4]triazin-2-yl)amino)-1-methylcyclohexan-1-ol], the IC50 is 14.1 nM.

Turning to `COc1nc(N[C@H]2CC[C@@H](C(C)(C)O)CC2)nn2ccc(-c3ccc4nccnc4c3)c12` [Compound 341, 2-(cis-4-((4-methoxy-5-(quinoxalin-6-yl)pyrrolo[2,1-f][1,2,4]triazin-2-yl)amino)cyclohexyl)propan-2-ol], the IC50 came out at 9.3 nM. Turning to `COc1nc(NC2CCC(C)(C#N)CC2)nn2ccc(-c3cnc4nccn4c3)c12` (centres unmarked) [Compound 948, 4-((5-(Imidazo[1,2-a]pyrimidin-6-yl)-4-methoxypyrrolo[2,1-f][1,2,4]triazin-2-yl)amino)-1-methylcyclohexane-1-carbonitrile], the IC50 came out at 0.4 nM. The result for `COc1nc(N[C@H]2CC[C@@H](OC)CC2)nn2ccc(-c3cnc4nccn4c3)c12` [Compound 243, 5-(imidazo[1,2-a]pyrimidin-6-yl)-4-methoxy-N-(cis-4-methoxycyclohexyl)pyrrolo[2,1-f][1,2,4]triazin-2-amine] reads 1.2 nM; that for `COc1nc(N[C@H]2CCN(CCO)C[C@H]2F)nn2ccc(-c3ccc4nnn(CC(F)F)c4c3)c12` [Compound 756, 2-((3R,4S)-4-((5-(1-(2,2-Difluoroethyl)-1H-benzo[d][1,2,3]triazol-6-yl)-4-methoxypyrrolo[2,1-f][1,2,4]triazin-2-yl)amino)-3-fluoropiperidin-1-yl)ethan-1-ol], 1.4 nM; that for `COc1nc(N[C@H]2CC[C@](C)(O)CC2)nn2ccc(-c3ccn4ncnc4c3)c12` [Compound 554, (1r,4r)-4-((5-([1,2,4]Triazolo[1,5-a]pyridin-7-yl)-4-methoxypyrrolo[2,1-f][1,2,4]triazin-2-yl)amino)-1-methylcyclohexan-1-ol], 7.7 nM.

In the case of `CCN1CC[C@@H](Nc2nc(OC)c3c(-c4ccc5nccnc5c4)ccn3n2)C(F)(F)C1` [Compound 1095, (R)—N-(1-Ethyl-3,3-difluoropiperidin-4-yl)-4-methoxy-5-(quinoxalin-6-yl)pyrrolo[2,1-f][1,2,4]triazin-2-amine], the IC50 was 4 nM. Then `COc1nc(N[C@H]2C[C@](C)(C(=O)N(C)C)C2)nn2ccc(-c3ccc4nccnc4c3)c12` [Compound 339, trans-3-((4-Methoxy-5-(quinoxalin-6-yl)pyrrolo[2,1-f][1,2,4]triazin-2-yl)amino)-N,N,1-trimethylcyclobutane-1-carboxamide], with 4.8 nM; and `COc1nc(N[C@@H]2CCN(C3COC3)C[C@@H]2F)nn2ccc(-c3cnc4nccn4c3)c12` [Compound 269, N-((3S,4R)-3-Fluoro-1-(oxetan-3-yl)piperidin-4-yl)-5-(imidazo[1,2-a]pyrimidin-6-yl)-4-methoxypyrrolo[2,1-f][1,2,4]triazin-2-amine], with 2.3 nM. The result for `COc1nc(N[C@H]2CC[C@@H](OCCO)CC2)nn2ccc(-c3ccc4nccnc4c3)c12` [Compound 343, 2-((cis-4-((4-Methoxy-5-(quinoxalin-6-yl)pyrrolo[2,1-f][1,2,4]triazin-2-yl)amino)cyclohexyl)oxy)ethan-1-ol] reads 0.7 nM; that for `COc1nc(N[C@H]2C[C@@](C)(N)C2)nn2ccc(-c3ccc4nccnc4c3)c12` [Compound 332, cis-N1-(4-Methoxy-5-(quinoxalin-6-yl)pyrrolo[2,1-f][1,2,4]triazin-2-yl)-3-methylcyclobutane-1,3-diamine], 2.8 nM; that for `COc1nc(N[C@@H]2CCN(C3COC3)CC2(F)F)nn2ccc(-c3cc(F)c4nnn(CC(F)F)c4c3)c12` [Compound 822, (R)—N-(3,3-Difluoro-1-(oxetan-3-yl)piperidin-4-yl)-5-(1-(2,2-difluoroethyl)-4-fluoro-1H-benzo[d][1,2,3]triazol-6-yl)-4-methoxypyrrolo[2,1-f][1,2,4]triazin-2-amine], 1.8 nM. Then `CN1CC[C@@H](Nc2nc(OC3COC3)c3c(-c4ccc5ncccc5c4)ccn3n2)C(F)(F)C1` [Compound 1091, (R)—N-(3,3-Difluoro-1-methylpiperidin-4-yl)-4-(oxetan-3-yloxy)-5-(quinolin-6-yl)pyrrolo[2,1-f][1,2,4]triazin-2-amine], with 1.8 nM; and `COc1nc(N[C@H]2CCN(C3COC3)C[C@H]2F)nn2ccc(-c3cnc4nccn4c3)c12` [Compound 270, N-((3R,4S)-3-Fluoro-1-(oxetan-3-yl)piperidin-4-yl)-5-(imidazo[1,2-a]pyrimidin-6-yl)-4-methoxypyrrolo[2,1-f][1,2,4]triazin-2-amine], with 5.1 nM. In the case of `COc1nc(N[C@@H]2CN(C3(C#N)COC3)C[C@@H]2F)nn2ccc(-c3ccc4nnn(CC(F)F)c4c3)c12` [Compound 741, 3-((3R,4S)-3-((5-(1-(2,2-Difluoroethyl)-1H-benzo[d][1,2,3]triazol-6-yl)-4-methoxypyrrolo[2,1-f][1,2,4]triazin-2-yl)amino)-4-fluoropyrrolidin-1-yl)oxetane-3-carbonitrile], the IC50 was found to be 1.2 nM.
